From patent US20260097133A1, “EPIGENETIC EDITING TOOL FOR TARGETING HEPATITIS B VIRUS GENE” (priority 2023, published 2026) come the findings set out here.

Data set [1] deals with type D HBV surface antigen (HBsAg) reporter cell line. Briefly: sgRNA lentiviral library screening, HBsAg reporter cell line (NGS reads in GFP-negative cells). The following applies: sgRNA in GFP-negative cell population, day 14 after transfection of EPIREG. It is filed as cell-based. The text has this:
In this example, the type D HBV X protein (HBx), core antigen (HBcAg), and surface antigen (HBsAg) reporter cell lines were used for library screening. First, a sgRNA cell library of type D HBV gene was constructed using a reporter cell line according to the method described in example 1. The sgRNA library was packaged into lentivirus to obtain a sgRNA lentiviral library (carrying red fluorescence), the reporter cell line was infected with the lentiviral library, and the red fluorescence was sorted to obtain the sgRNA cell library. Each cell in this sorted cell library integrated a single sgRNA in the library while the cell itself carried a reporter sequence (carrying green fluorescence). The EPIREG tool described in example 2 (the amino acid sequence of the tool was SEQ ID NO: 1194) (carrying blue fluorescence) was transfected and delivered into a cell library carrying both sgRNA and reporter sequences. Red/green/blue fluorescent triple-positive cells were sorted using a flow cytometer and cultured long-term. The EPIREG transfected into the cells could work together with the sgRNA to silence GFP in the reporter. On the day 14 after transfection, the GFP-negative cell population in the cell library was sorted, the genomic DNA of the negative cell population was extracted for NGS sequencing. The sgRNAs with higher sequencing reads in the negative cell population were compared using the untreated cell library as a control reference, so as to obtain the candidate sgRNAs that could play an editing role corresponding to each reporter, respectively (the schematic diagram of this screening scheme is shown in FIG. 6, and the analysis method is referenced to the literature DOI: 10.1186/s13059-014-0554-4). The functionally validated sgRNAs for each reporter cell line are summarized in the following table (arranged by the starting position of the target sequence of each sgRNA).

In data set [2] the test system is type D HBV core antigen (HBcAg) reporter cell line. Nature of the data set: sgRNA lentiviral library screening, HBcAg reporter cell line (NGS reads in GFP-negative cells). Conditions: sgRNA in GFP-negative cell population, day 14 after transfection of EPIREG. It is filed as cell-based.
Data set [3] concerns type D HBV X protein (HBx) reporter cell line. Nature of the data set: sgRNA lentiviral library screening, HBx reporter cell line (NGS reads in GFP-negative cells). It is filed as cell-based. Conditions: sgRNA in GFP-negative cell population, day 14 after transfection of EPIREG.
Data set [4] deals with type D hepatitis B virus (GenBank: U95551). Briefly: Knockdown of HBV markers in HBV-infected primary hepatocytes (PHH), Example 2. It is filed as cell-based. Conditions: sgRNA: single 4 h treatment, RG7834 stopped on day 13. The text has this:
A primary hepatocyte (PHH) cell line infected with type D hepatitis B virus (GenBank: U95551) was used in this example. […] Therefore, these four sgRNAs were used to formulate the pharmaceutical composition provided in the present application and perform epigenetic editing in primary hepatocytes to validate their inhibitory effect on HBV gene expression.
Two days after primary hepatocytes were infected with HBV, lipid nanoparticles (LNPs) (LNP preparation reference: https://doi.org/10.1038/s41586-021-03534-y) were used to deliver a composition containing mRNA encoding EPIREG (SEQ ID NO: 1191) and each sgRNA (BSG29, BSG31, BSG34, BSG35) into primary hepatocytes (administration dose was 2.5 μg/ml, the mass ratio of EPIREG to sgRNA was 1:1). The culture supernatant was collected every two days after administration to detect the expression levels of HBV surface antigen (HBsAg) and core antigen (HBcAg) secreted by the cells. Cell samples were collected until 14 days after administration, DNA and RNA were extracted from the cells, and the levels of HBV mRNA and changes in the cccDNA of the HBV gene were detected. The two groups of positive controls used Myrcludex B (WuXi AppTec, C9023GE070-1/PE0723) and RG7834 (WuXi AppTec, ET25747-14-P1), respectively. Myrcludex B could inhibit HBV infection of hepatocytes, and RG7834 could inhibit the synthesis of viral proteins. RG7834 was stopped on the day 13 of the experiment to observe the rebound of viral antigen proteins. (Specific detection methods were performed according to the following kit instructions: HBsAg ELISA kit, Antu-CL 0310; HBeAg ELISA kit, Antu-CL 0312; RNeasy 96 Kit (12), QIAGEN #74182)

The subject of data set [5] is HBx reporter cell line of type B HBV. Nature of the data set: sgRNA functional screening in HBx reporter cell line (293 FT, P2A-EGFP), type B HBV. Conditions: type B HBV; different time points after transfection of EPIREG + sgRNA. It is filed as cell-based, type B HBV (serotype adw). The text has this:
293 FT was used to construct a reporter cell line for type B, type C and type D HBV surface antigen (HBsAg), core antigen (HBcAg), X protein (HBx) and polymerase (Pol), and the schematic diagram is shown in FIG. 1A. The genomic sequence containing the CpG island and regulatory elements before the protein transcription start site was retained, and the gene sequences of the self-cleaving peptide P2A and EGFP were fused after the 38th amino acid of the HBV surface antigen (HBsAg), the 129th amino acid of the core antigen (HBcAg), the 77th amino acid of the X protein (HBx), and the 177th amino acid of the polymerase (Pol), respectively. The reporter gene was integrated into the 293 FT genome using the PiggyBac transposon system, and a stably transfected cell line was constructed. The intensity of fluorescence was used to reflect the expression level of the protein, thereby quickly performing functional validation and preliminary screening of sgRNAs near the CpG island.
The screening scheme for sgRNA functional validation using the above-mentioned reporter cell line was designed as follows (FIG. 1B): after the reporter cells were plated, the composition EPIREG described in the present application (the domain of the composition was DNMT3A-hDNMT3L-xten80-ZIM3-xten80-dCas9, with an amino acid sequence as set forth in SEQ ID NO: 1194, and a nucleic acid sequence as set forth in SEQ ID NO: 1192 (CDS sequence) and 1193 (plasmid sequence)) containing different sgRNAs was delivered into the cells by transfection, and the two carried red fluorescence and blue fluorescence, respectively. Flow cytometry was used to sort red fluorescent and blue fluorescent double-positive cell populations, which were cultured for a long time. Flow cytometric analysis was performed every week to detect changes in the fluorescence intensity of the reporter cells, which could reflect changes in protein expression levels after epigenetic editing.

With “491 (guide CGGAACGGCAGACGGAGAAG; listed as DNA, chemistry not fully specified) [compound 491]”, the “Log2 FC” value in data set [1] turned out to be 2.6046; in data set [2], 4.5168; in data set [3] it was 6.0674.
Turning to “506 (guide CGTCCCGCGCAGGATCCAGT; listed as DNA, chemistry not fully specified) [compound 506]”, the entries for the “Log2 FC” value in data set [1], in data set [2] and in data set [3] were 1.5863, 3.3238 and 5.3827, respectively.
Consider “601 (guide GACCAAGCCCCAGCCAGTGG; listed as DNA, chemistry not fully specified) [compound 601]”, for which the “Log2 FC” value came out at 1.3073 in data set [1], 4.6508 in data set [2] and 7.1876 in data set [3].
For “641 (guide GATCGGCAGAGGAGCCGAAA; listed as DNA, chemistry not fully specified) [compound 641]”, the “Log2 FC” value is reported as 1.58 in data set [1], 5.5293 in data set [2] and 7.351 in data set [3].
The corresponding values for “658 (guide GCAAATATACATCGTATCCA; listed as DNA, chemistry not fully specified) [compound 658]” are 1.8084, 2.2171 and 4.7952.
As to “669 (guide GCAGATGAGAAGGCACAGAC; listed as DNA, chemistry not fully specified) [compound 669]”, the “Log2 FC” value in data set [1] is listed as 1.1259; in data set [2], 3.0945; in data set [3], 4.1676.
For “792 (guide GGTCTGGAGCAAACATTATC; listed as DNA, chemistry not fully specified) [compound 792]”, in that order: 1.5074, 2.103 and 5.6925.
Regarding “810 (guide GTAAAGAGAGGTGCGCCCCG; listed as DNA, chemistry not fully specified) [compound 810]”, the “Log2 FC” value in data set [1] is 1.7059; in data set [2], 2.5258; in data set [3] it was 5.1825.
Turning to “825 (guide GTCCCAAGCGACCCCGAGAA; listed as DNA, chemistry not fully specified) [compound 825]”, the results for the “Log2 FC” value in data set [1], in data set [2] and in data set [3] were 1.0352, 3.3064 and 5.2457, respectively.
As for “834 (guide GTCGGAACGGCAGACGGAGA; listed as DNA, chemistry not fully specified) [compound 834]”, the “Log2 FC” value in data set [1] is reported as 1.2666; in data set [2], 2.7177; in data set [3], 4.7704.
For “973 (guide TCGGAACGGCAGACGGAGAA; listed as DNA, chemistry not fully specified) [compound 973]”, in that order: 1.056, 3.9552 and 6.3619.
For “985 (guide TCTGCCGTTCCGACCGACCA; listed as DNA, chemistry not fully specified) [compound 985]”, in that order: 1.8695, 3.1824 and 6.0276.
Regarding `COCCCOc1cc2c(cc1OC)-c1cc(=O)c(C(=O)O)cn1[C@H](C(C)C)C2` [RG7834, reference compound], the “level of viral antigen protein (HBsAg, HBeAg/HBcAg) after end of treatment” value in data set [4] is “clear rebound (increasing) trend”.
With “BSG30: sgRNA tested in the HBx reporter cell line of type B HBV (guide CCTGCTGCGAGCAAAACAAG; listed as DNA, chemistry not given here)”, the “editing effects in the HBx reporter cell line” value in data set [5] is listed as “extremely high editing effects”.
The same measure, in the same setting: in the case of “BSG43: sgRNA tested in the HBx reporter cell line of type B HBV (guide TCCTCTACCGATCCATACTG; listed as DNA, chemistry not given here)” it was “extremely high editing effects”.
Still for that read-out and setting: in the case of “BSG50: sgRNA tested in the HBx reporter cell line of type B HBV (guide GATCGGTAGAGGAGACACAA; listed as DNA, chemistry not given here)” it was “extremely high editing effects”.
